Source: patent US20160106770A1, “EPIGENETIC MECHANISMS OF ANTI-FIBROTIC ACTION FOR THE LIVER” (University of Southern California, priority 2011, published 2016)

Experiments:
[1] = system: TOPFLASH promoter activity in rat primary HSCs; assay: TOPFLASH TCF promoter-luciferase reporter, transient transfection by electroporation; assay type: cell-based; conditions: day 7 primary HSCs
Protocol: TCF promoter-luciferase construct TOPFLASH (a gift from Dr. Randall Moon, Univ. of Washington, Seattle, Wash.) or a KB luciferase construct was used for transient transfection in the rat primary HSCs by electroporation using the NeonTM Transfection System (Invitrogen). The Renilla pRL-TK construct was used for standardization for transfection efficiency. Cell lysates were analyzed by the dual luciferase assay (Promega) on a luminometer. To assess the activity of IKK, IKK was immunoprecipitated by IKKα antibody and protein G-Sepharose, and the assay was performed at 30° C. for 1 hr in buffer containing 20 mM Tris HCl, pH 7.5, 20 mM MgCl2, 2 mM dithiothreitol, 20 μM ATP, 2 μg GST-IκBα, and [γ-32P]ATP. The reaction was stopped by addition of […] buffer and was resolved by 10% SDS-PAGE followed by a transfer onto a membrane for imaging.

[2] = system: culture-activated rat primary HSCs; assay: Real time quantitative PCR of cultured HSCs; assay type: cell-based; conditions: for expression of Necdin / expression of Wnt3a / expression of Wnt10b: 270 μM, day 7 HSCs vs vehicle; for EZH2 expression: day 7 HSCs, RA or BC
From the text: HSCs were isolated from normal male Wistar rats, C57B1/6 and Coll-GFP mice by in situ digestion of the liver and arabinogalactan gradient ultracentrifugation by the Non-Parenchymal Liver Cell Core of the Southern California Research Center for ALPD and Cirrhosis as described previously in Cheng J H et al,. Wnt antagonism inhibits hepatic stellate cell activation and liver fibrosis, Am J Physiol Gastrointest Liver Physiol, 2007 Nov 15; and Zhu N L et al., The […] pathway causes epigenetic peroxisome proliferator-activated receptor gamma repression in hepatic stellate cells, J Biol Chem, 2010 Oct 1; 285(40):30463-30471, both of which are incorporated by reference herein in their entirety as though fully set forth. The purity of the cells, as determined by phase contrast microscopy and ultraviolet-excited fluorescence microscopy, exceeded 96%, and the viability as determined by trypan blue exclusion exceeded 94%. In vitro activation of HSCs was achieved by culturing rat HSCs in Dulbecco's modified Eagle's medium (DMEM) with 1.0 g/liter glucose, 10% fetal bovine serum and 1% antibiotics on plastic dish for 3, 5 or 7 days. Culture-activated rat primary HSCs were treated with the YGW or starch (control) aqueous extract at 25% (v/v). To obtain the extract, the YGW or starch powder (provided by S.P. Pharmaceutics Inc.) was suspended in DMEM at the concentration of 35 mg/ml, mixed thoroughly with a vortex for 5 min, and centrifuged at ×150 g for 30 min to collect the supernatant. This supernatant was designated as 100% extract and used after filter-sterilization. RA and BC (Sigma Chemical Co) were dissolved in DMSO and tested at the concentration of […]. Total RNA was extracted from the cells using TRIzol reagent (Invitrogen) or RNeasy Mini kit (Qiagen). One microgram of RNA was reverse transcribed to cDNA by using SuperScript III First-Strand Synthesis System (Invitrogen) and amplified by 40 cycles using primers listed below and the SYBR Green PCR Master mix reagent (AB Applied Biosystem). Each threshold cycle (Ct) value was first normalized to the 36B4 Ct value of a sample and subsequently compared between the treatment and control samples.

[3] = system: culture-activated rat primary HSCs; assay: Morphologic reversal of culture-activated HSCs (phase contrast / UV autofluorescence microscopy); assay type: cell-based; conditions: concentration of 135 and 270 μM
Protocol: The purity of the cells, as determined by phase contrast microscopy and ultraviolet-excited fluorescence microscopy, exceeded 96%, and the viability as determined by trypan blue exclusion exceeded 94%. In vitro activation of HSCs was achieved by culturing rat HSCs in Dulbecco's modified Eagle's medium (DMEM) with 1.0 g/liter glucose, 10% fetal bovine serum and 1% antibiotics on plastic dish for 3, 5 or 7 days. Culture-activated rat primary HSCs were treated with the YGW or starch (control) aqueous extract at 25% (v/v). To obtain the extract, the YGW or starch powder (provided by S.P. Pharmaceutics Inc.) was suspended in DMEM at the concentration of 35 mg/ml, mixed thoroughly with a vortex for 5 min, and centrifuged at ×150 g for 30 min to collect the supernatant. This supernatant was designated as 100% extract and used after filter-sterilization. RA and BC (Sigma Chemical Co) were dissolved in DMSO and tested at the concentration of 67.5˜270 μM.

rat HSCs = assay: Immunoblot analysis of cultured HSCs; assay type: cell-based; conditions: day 7 HSCs, RA or BC
Protocol: Whole cell extracts were prepared as previously described in Hazra S. et al., Peroxisome proliferator-activated receptor gamma induces a phenotypic switch from activated to quiescent hepatic stellate cells, J Biol Chem, 2004 Mar 19; 279 (12):11392-11401, which is incorporated by reference herein as though fully set forth. Equal amounts of the extract (20 μg) were separated by 8-15% SDS-PAGE and the proteins were transferred to nitrocellulose membranes (Bio-Rad, Hercules, Calif.). MeCP2, type I collagen, and β-actin were detected by incubating with rabbit polyclonal anti-MeCP2 (1:1000) (Abcam), antitype I collagen (1:4000), and anti-β-actin (1:5000) primary antibodies (Santa Cruz Biotechnology) in TBS (100 mM Tris-HCl, 1.5 M NaCl, pH 7.4) with 5% nonfat milk overnightat 4° C. followed by incubation with horseradish peroxidase conjugated goat anti-rabbit secondary antibodies (1:4000) (Sigma) at room temperature for 2 hr. The antigen-antibody complexes' chemiluminescence was detected by using the ECL detection kit (Pierce).

Pparγ gene = assay: Chromatin immunoprecipitation (ChIP) at the Pparγ gene in HSCs; assay type: cell-based, rat; conditions: day 7 HSCs, RA or BC
Protocol: For assessing Pparγ epigenetic regulation, carrier ChIP was performed using Raji cells as the source of carrier chromatin. For native ChIP, 20 μg of HSC chromatin was mixed with 80 μg of Raji cell chromatin. For cross-link ChIP, Raji cells (1.4×10^7 cells) were mixed to HSCs (0.2×10^6 cells) and fixed with 1% formaldehyde on the rotating platform for 5-10 minutes at room temperature followed by addition of glycine to a final concentration of 0.125M. After lysis of the cells with SDS buffer (1% SDS, 10 mM EDTA, 50 mM Tris-HCl pH8.1) with protease inhibitors, the lysates were sonicated and snap frozen in aliquots. For chromatin IP, diluted samples were first pre-cleared using protein G-agarose beads and then incubated with antibody against […], MeCP2, H3K27me2, H3K4me2 and […] (Abcam) at 1 μg/μl at 4° C. for overnight followed by precipitation with protein G agarose beads. After elution of immunoprecipitated complex, crosslinking was reversed with 5N NaCl and proteins digested with protease K. Extracted chromatin was subjected to real-time PCR using the primers flanking a segment within Pparγ promoter or exon as previously described in Mann J et al., MeCP2 controls an epigenetic pathway that promotes myofibroblast transdifferentiation and fibrosis, Gastroenterology, 2010 Feb; 138(2):705-14, 714, which is incorporated herein by reference as though fully set forth. Ct values of the samples with non-immune IgG were subtracted and compared to their respective input Ct values.

[4] = system: BDL-induced cholestatic liver fibrosis in mice; assay: Bile duct ligation (BDL) cholestatic liver fibrosis model; assay type: in vivo
Protocol: Male C57B1/6 and collagen α1(I) promoter-GFP (Coll-GFP) mice were subjected to ligation and scission of the common bile duct (BDL) to induce cholestatic liver fibrosis for HSC isolation or testing the therapeutic efficacy of RA. For the latter, after one week following BDL, RA was intraperitoneally injected daily at the dose of 0.1 mg/25 g body weight until the animals were sacrificed one week later for Sirius-red staining morphometry, immunohistochemistry, and qPCR analysis of the livers as described below.
After 3 days of the extract treatment, the cells were washed with cold phosphate-buffered saline (PBS) and fixed in 4% paraformaldehyde (PF). To stain α-smooth muscle actin (SMA), a fluorescein isothiocyanate (FITC) conjugated antibody (1:200, Sigma, Saint Louis, Mo.) was added as a primary antibody at 4° C. for overnight. After washing and blocking with 5% nonfat milk, fluorescence images were viewed by a Nikon microscope as described above. For intracellular lipid staining, HSCs treated with the extract for 3 days were cultured with retinol (5 μM) and palmitic acid (100 μM) (Sigma, Saint Louis, Mo.) for 48 hr, and fixed with 10% formalin in PBS. Oil Red O (0.5% w/v in isopropanol) was diluted with 67% volume of water, filtered, and added to the fixed HSCs. Apoptosis was detected in cultured HSCs and liver sections from BDL mice using a Cell Death Detection kit from Roche. For liver section immunostaining, liver tissues were fixed with 4% PF and embedded in freezing medium. Cryosections (7 μm) were washed with PBS, digested with 20 μg/ml proteinase K (Invitrogen, Carlsbad, Calif.), and blocked with 5% goat serum and 0.2% bovine serum albumin. The sections were then incubated with mouse anti-SMA antibody conjugated with FITC (Sigma, 1:400) and rabbit anti-desmin antibody (Thermo Scientific, Rockford, Ill., 1:400). After washing, the sections were incubated with goat anti-rabbit antibody conjugated with AlexaFluor 568 (Invitrogen, 1:400) and mouse anti-FITC antibody conjugated with DyLight 488 (Jackson ImmunoResearch, West Grove, Pa., 1:400). The sections were mounted with 4,6-diamidino-2-phenylindole (DAPI) (Invitrogen) and fluorescence images were visualized under a microscope. To quantify the percentage and density of HSCs in the liver after BDL with or without treatment of RA, 6 images were randomly captured using a 10× objective lens in 3 different sections and SMA+ and desmin+HSCs in the parenchyma were counted.
Total RNA was extracted from the cells using TRIzol reagent (Invitrogen) or RNeasy Mini kit (Qiagen). One microgram of RNA was reverse transcribed to cDNA by using SuperScript III First-Strand Synthesis System (Invitrogen) and amplified by 40 cycles using primers listed below and the SYBR Green PCR Master mix reagent (AB Applied Biosystem). Each threshold cycle (Ct) value was first normalized to the 36B4 Ct value of a sample and subsequently compared between the treatment and control samples.

[5] = RA ip daily 0.1 mg/25 g, immunohistochemistry SMA/Desmin, vs vehicle
[6] = RA ip daily 0.1 mg/25 g, vs vehicle

SMILES | TOPFLASH activity [1] | expression of Necdin [2] | expression of Wnt3a [2] | expression of Wnt10b [2] | EZH2 expression [2] | morphologic reversal of activated HSCs with increased UV-excited autofluorescence [3] | MeCP2 protein level (rat HSCs) | H3K27me2 at the Pparγ exon (Pparγ gene) | MeCP2 enrichment in the Pparγ promoter (Pparγ gene) | TUNEL+HSCs or hepatocytes in the liver parenchyma ([4]; RA ip daily 0.1 mg/25 g) | density of Desmin+HSCs (increased by BDL) ([4]; RA ip daily 0.1 mg/25 g) | liver to body weight percentage ([4]; RA ip daily 0.1 mg/25 g body weight during second week of BDL) | plasma ALT levels ([4]; RA ip daily 0.1 mg/25 g body weight during second week, p=0.29 vs vehicle) | liver fibrosis by digital morphometric analysis of Sirius red-stained collagen fibers ([4]; RA ip daily 0.1 mg/25 g body weight during second week, vs vehicle) | reduction of the percentage of SMA+HSCs [4, 5] | reduction of the percentage of SMA+MFs [4, 5] | hepatic mRNA level of SMA [4, 6] | hepatic mRNA level of α1(I) procollagen [4, 6]
O=C(O)[C@H]1O[C@@H](Oc2cc3oc(-c4ccccc4)cc(=O)c3c(O)c2O)[C@H](O)[C@@H](O)[C@@H]1O [BC, baicalin] | suppress | reduced | suppress | suppress | reduce | morphologically reverse activated HSCs to quiescent cells | reduce | reduce | reduce |  |  |  |  |  |  |  |  | 
O=C(/C=C/c1ccc(O)c(O)c1)O[C@H](Cc1ccc(O)c(O)c1)C(=O)O [RA, rosmarinic acid] | suppress | reduced | suppress | suppress | reduce | morphologically reverse activated HSCs to quiescent cells | reduce | reduce | reduce | No TUNEL+HSCs or hepatocytes are detected | no effect | 6.8 ± 0.7 | 157+71 | significant attenuation | 75% | 40% | significantly reduced | significantly reduced
